According to PMC12339163, “Combining Plant Bioactives With Antibiotics for Enhanced Antibiofilm Activity Against Uropathogenic Staphylococcus spp. and Cytotoxicity Evaluation” (Advances in Pharmacological and Pharmaceutical Sciences, 2025):
≈ marks a conversion by molar mass, not a printed value. Where two headings read alike, the source gives them in different places.

Assays:
[1] = test system: planktonic cells of Staphylococcus saprophyticus; experiment: Checkerboard combination assay, planktonic cells; assay type: cell-based; details: S. saprophyticus, mean; for MIC: Staphylococcus saprophyticus
Description: (§1) The checkerboard assay, as previously described, was used for the determination of the fractional inhibitory concentration index (FICI). Briefly, 50 µL of MHB was distributed into each well of a 96-well microplate. ATBs were serially diluted along the abscissa, and NPs were serially diluted along the ordinate. Then, 100 µL of bacterial inoculum (1.5 × 10^6 CFU/mL) was added to each well and incubated at 37°C for 24 h. The final concentration ranged from 0.125 to 128 µg/mL for ATBs and 4–512 µg/mL for NPs. After incubation, a volume of 40 µL of INT solution (0.2 mg/mL) was added to each well, and the microplate was incubated at 37°C for 30 min. The wells containing bacterial inoculum and MHB were used as a positive control, while wells containing only MHB + 1% glucose were used as a negative control and used as a blank. Viable bacteria cells change the yellow dye of INT to a pink color. The MICs were considered to be the lowest NP concentrations that prevented the color change medium. Subsequently, the FICI was calculated according to the formula FICI = (MIC of the ATBs in combination/MIC of the ATBs alone) + (MIC of a natural substance in combination/MIC of the natural substance alone). FICI values were interpreted as follows: synergy when FICI ≤ 0.5; additive when 0.5 < FICI ≤ 1; indifference when 1 < FICI ≤ 4; and antagonism when FICI > 4.

[2] = test system: planktonic cells of Staphylococcus aureus; experiment: Checkerboard combination assay, planktonic cells; assay type: cell-based; details: Staphylococcus aureus, S. aureus, mean
Description: as §1

S. saprophyticus = experiment: MIC and MBC, broth microdilution; assay type: cell-based, Staphylococcus saprophyticus; details: Staphylococcus saprophyticus, geometric mean, S. saprophyticus (n = 3); for MBC: read-out: MBC; for MIC: read-out: MIC
Description: (§2) Seven clinical isolates of Staphylococcus spp. including 2 S. aureus, 3 S. saprophyticus, and 2 S. epidermidis were used. They were isolated from urine samples in our previous study. Two reference strains (S. aureus ATCC1026 and S. epidermidis ATCC35984) obtained from the American Type Culture Collection were also included. They were kept in the mixture of glycerol and Mueller Hinton Broth (MHB) (1:1) at −20°C, and the activation was achieved using the streak technique on Mueller Hinton agar (MHA) medium.
(§3) The MICs of ATBs and NPs were determined by the broth microdilution method as previously described. NPs and ATBs were, respectively, prepared at 4096 µg/mL and 512 µg/mL and serially diluted twofold with MHB in a 96-well microplate at a volume of 100 µL. Then, the wells were filled with 100 µL of inoculum (1.5 × 10^6 CFU/mL) to give final concentrations ranging from 1024 µg/mL to 0.5 µg/mL and 128 µg/mL to 0.062 µg/mL of NPs and ATBs, respectively. The microplates were incubated for 24 h at 37°C. Wells containing only bacterial inoculum were used as the negative control. After incubation, a volume of 40 µL of INT solution (0.2 mg/mL) was added to each well, and the microplate was incubated at 37°C for 30 min. Viable bacteria cells change the yellow dye of INT to a pink color. The MIC was considered as the lowest concentration of the sample at which there was no change in the coloration of the medium, corresponding to the complete inhibition of microbial growth.
(§4) All tests were performed in triplicate.

S. aureus = experiment: MIC and MBC, broth microdilution; assay type: cell-based, Staphylococcus aureus; details: Staphylococcus aureus, geometric mean, S. aureus (n = 3); for MBC: read-out: MBC; for MIC: read-out: MIC
Description: as §2, §3, §4

Raw 264.7 macrophages = experiment: Cytotoxicity, MTT assay; assay type: cell-based; details: Raw 264.7, MTT
Description: (§5) Two cell lines, including Raw 264.7 macrophages and the urinary epithelial cell line UROtsa obtained from the American Type Culture Collection (Rockville, MD, USA), were used. They were cultured in Dulbecco's modified Eagle's medium (DMEM), which was supplemented with 10% fetal bovine serum (FBS) and 1% penicillin, streptomycin, and fungizone (PSF). They were then grown at 37°C in a humidified environment containing 5% CO2.
(§6) The cytotoxicity of the selected synergistic combinations, as well as the individual constituents of combinations, against the abovementioned cell lines was performed by the MTT assay as previously described. Briefly, cells from each line were harvested in the logarithmic phase using trypsin (0.05% trypsin, 0.02% EDTA in PBS). Cell suspension was diluted with an appropriate growth medium to obtain a cell density of 10^4 cells/well. A 100 µL aliquot of each suspension was seeded into 96-well cell culture plates and incubated at 37°C in an atmosphere of 5% CO2 and 95% relative humidity. After 24 h of incubation, 100 µL of samples (ATBs and NPs) at concentrations varying from 0.01, 0.1, 1, 10, 100, and 1000, as well as the synergistic combinations (C1 to C5), was added to the wells containing the cells. Doxorubicin was used as a positive control. Appropriate controls with an equivalent concentration of DMSO were also included. Plates were incubated for 48 h, then the medium in each well was aspirated, and MTT solution (2 mg/mL in PBS) was diluted 1:10 with fresh medium and added to each well, and the plates were further incubated at 37°C for 4 h. Absorbance was measured on a BioTek microplate reader at 570 nm. The percentage of cell viability was calculated by comparing treated and untreated cells using the equation [39]:(3) cell viability %=ODtest/ODcontrol×100.
(§7) Then, the IC50 values of the samples having shown at least 50% inhibition were calculated by plotting the percentage of inhibition against the concentrations.

[3] = test system: UROtsa urinary epithelial cells; experiment: Cytotoxicity, MTT assay; assay type: cell-based; details: 48 h
Description: as §5, §6, §7

S. saprophyticus biofilm = experiment: Biofilm eradication assay (MBEC, MTT); assay type: cell-based, Staphylococcus saprophyticus; details: Staphylococcus saprophyticus, 24 h; geometric mean, S. saprophyticus (n = 3)
Description: The determination of the biofilm eradication potential of NPs and ATBs was performed as previously described. Briefly, 100 µL of bacterial inoculum (1.5 × 10^6 CFU/mL) and 100 µL of MHB + 1% glucose were introduced into the microplate, incubated at 37°C for 24 h, and the microplate was gently emptied and washed three times with PBS. Then, 200 µL of ATBs or NPs at respective concentrations ranging from 8 to 1024 µg/mL and from 16 to 2048 µg/mL were incubated at 37°C for 24 h. Once incubation was completed, the microplate was processed as described above, and the percentage of biofilm eradication was calculated using the formula below. The minimal biofilm eradicating concentration (MBEC) was recorded as the lowest concentration of the test sample that reduces 100% of biofilm:(2) % biofilm eradication=ODcontrol−ODblank−ODtest−ODblank/ODcontrol−ODblank×100.

[4] = Mus musculus, RAW264.7, 48 h, read-out: IC50
[5] = Epithelial cell, read-out: IC50

| MIC (S. saprophyticus) | MIC (S. aureus) | MIC ([1]; 24 h, read-out: MIC alone, NPs) | MIC ([1]; read-out: MIC alone, NPs) | MIC ([2]; 24 h, read-out: MIC alone, NPs) | MIC ([2]; read-out: MIC alone, NPs) | SMILES | IC50 (Raw 264.7 macrophages; [4]) | IC50 [3, 5] | minimal effective concentration (S. saprophyticus biofilm) | MBC (S. saprophyticus; natural products) | MBC (S. aureus; natural products) | other results |
| --- | --- | --- | --- | --- | --- | --- | --- | --- | --- | --- | --- | --- |
| 22 µg/mL (≈ 60.2 µM) | 86.7 µg/mL (≈ 237 µM) | – | – | – | – | CC1(C)S[C@@H]2[C@H](NC(=O)[C@H](N)c3ccc(O)cc3)C(=O)N2[C@H]1C(=O)O [Amoxicillin, amoxicillin] | > 1000 µg/mL | > 1000 µg/mL | 9.33 µg/mL | – | – | MIC ([1]; 24 h, read-out: MIC alone, ATB): 22 µg/mL; MIC ([1]; read-out: MIC alone, ATB): 22 µg/mL; MIC ([2]; 24 h, read-out: MIC alone, ATB): 86.7 µg/mL; MIC ([2]; read-out: MIC alone, ATB): 86.7 µg/mL; MBC (S. saprophyticus; antibiotics): > 128 µg/mL; MBC (S. aureus; antibiotics): > 128 µg/mL; IC50 (Raw 264.7 macrophages; 48 h): — (IC50 > 1000 µg/mL); IC50 [3]: — (IC50 > 1000 µg/mL) |
| 341 µg/mL (≈ 2270 µM) | 299 µg/mL (≈ 1990 µM) | 341 µg/mL | 341 µg/mL | 299 µg/mL | 299 µg/mL | Cc1ccc(C(C)C)c(O)c1 [Thymol, thymol] | 442 µg/mL | > 1000 µg/mL | 107 µg/mL | > 1020 µg/mL | > 1020 µg/mL | – |
| 171 µg/mL (≈ 463 µM) | – | 149 µg/mL | 149 µg/mL | 235 µg/mL | 235 µg/mL | COc1cc(/C=C/C(=O)CC(=O)/C=C/c2ccc(O)c(OC)c2)ccc1O [Curcumin, curcumin] | 94.4 µg/mL | 51.9 µg/mL | 171 µg/mL | > 1020 µg/mL | > 1020 µg/mL | MIC alone, NPs ([1]; listed as Cur): 213.33 µg/mL; MIC (S. aureus; 24 h): 244 µg/mL (≈ 661 µM) |
